Measurements taken from US10245330B2, “Compositions and methods for imaging” (The Regents of the University of California, priority 2010, dated 2019).

Assay: Solubility in water
Format: physicochemical
Protocol: ^13C-BFA has suitable properties for polarization by DNP in that it is soluble forming >5 M solutions in water and readily forms a glass upon flash freezing. A 5 M solution of ^13C-BFA in water was prepared with 15 mM OXO63 radical and polarized by DNP by irradiating at 90940 MHz. A buildup time constant of 830 s provided ˜5% polarization (5450-fold enhancement factor) after 45 minutes. The spectroscopic detection of H2O2 of the probe was accomplished by rapidly dissolving polarized samples of ^13C-BFA in 100 mM phosphate buffer at pH 7.8 to a final concentration of 5 mM, followed by reaction with various concentrations of hydrogen peroxide.

## O=C(c1ccccc1)[13C](=O)O [^13C-BFA, ^13C-benzoylformic acid]
  solubility (solutions in water): > 5000 mM
